Source: patent US5559145A, “1,2,4-trioxane derivatives” (priority 1995, dated 1996)

Key:
[1] = tested on: Onchocerca gutturosa; test: Activity against Onchocerca gutturosa assessed by motility (parasites, medium, serum, cells and test drugs); type: cell-based; design: reduction of motility: concentration or dose not given beside the values; details: with cells
Experimental: Testing in vitro against Onchocerca gutturosa is a valid model for activity against Onchocerca volvulus.
(§1) Testing of test drugs (Compounds 1, 2, 3, 4, 5, 7, 8, 9, 11, and 12 of Table 1 ) against the parasitic worms Onchocerca gutturosa was carried out in accordance with the method described in J Helminth (1987) 60, 271, firstly using parasites, medium, serum, cells and test drugs.

[2] = tested on: Onchocerca gutturosa; test: Activity against Onchocerca gutturosa assessed by motility (parasites, medium and drug); type: cell-based; details: for motility / effect on worm motility: without cells; for effect on worm motility: in words
Experimental: as §1
Secondly, test drugs (Compounds 2, 3, 4, 7,. 8, 9 and 12 of Table 1) were tested using parasites, medium and drug. […] Under these conditions, commercial anti-helminthic drugs and artemisinin also cut motility by some 30-40%.

[3] = tested on: Onchocerca gutturosa; test: Activity against Onchocerca gutturosa, tetrazolium colorimetric test (parasites, medium, cells and test drug); type: cell-based; details: with cells; for inhibition at 50 µM: Onchocerca gutturosa, 5×10^-5 M, read-out: inhibition of formazan formation
Experimental: (§2) A suitable colorimetric assay uses formation of formazan, a blue dye, from tetrazolium cation generated by 3-[…] bromide (J Helminth (1987) 60, 271). Firstly, Compounds 1, 2, 4, 5, 7, 8, 9, 11 and 12, along with artemisinin and arteether were tested using parasites, medium, cells and test drug.

[4] = tested on: T. gondii; test: Activity against T. gondii within HeLa cells, assessed by light microscopy; type: cell-based, Toxoplasma gondii (in HeLa (ATCC CCL2) cells); details: for Mean T. gondii per infected vacuole: HeLa (no drug: 8.1); for % infected cells: HeLa (no drug: 49); for T. gondii per 100 cells: HeLa (no drug: 620); for block of parasite growth: in words, HeLa cells
Experimental: Confluent epithelium-like HeLa (ATCC CCL2) cell monolayers growing on 6-well plastic multidish (9.6 cm^2, Nunc, Roskilde, Denmark) were used. After washing with HBSS, the monolayers were infected with 3×10^6 ml^-1 T. gondii in M199-3% FCS (total amount per well, 3 ml) for 1 h, washed twice with HBSS, and the drugs were added with M199-10% FCS over 22 h. Monolayers were then fixed, Giemsa-stained and-assessed by light microscopy.

[5] = tested on: T. gondii; test: Activity against T. gondii within macrophages, assessed by light microscopy; type: cell-based, Toxoplasma gondii (in murine peritoneal macrophages); design: % infected cells / Mean T. gondii per infected vacuole / T. gondii per 100 cells: dose or concentration left out as unconfirmed; details: for Mean T. gondii per infected vacuole: macrophages (no drug: 4.3); for % infected cells: macrophages (no drug: 42); for T. gondii per 100 cells: macrophages (no drug: 191); for activity compared with pyrimethamine and pyrimethamine + sulfadiazine / inhibition of the intracellular growth of toxoplasma: in words, at respective IC90 values
Experimental: Unelicited murine peritoneal macrophages obtained by washing the peritoneal cavities of Swiss-Webster mice with 3 ml of Hanks' Balanced Salt Solution (HBSS) (4° C.) containing 5 U ml of heparin were purified by centrifugation in Ficoll-Paque (Pharmacia) 500×g for 15 min, pooled and suspended in medium 199 (M199) containing 10% heat-inactivated (56° C. for 60 min) fetal calf serum (FCS). An amount of […] was seeded into each well of 96-well dishes (Costar) and allowed to adhere during 2-3 h at 37° C. in an 5% CO2 -95% air atmosphere. The nonadherent cells were removed by washing twice with prewarmed HBSS and challenged with 3 ×10 tachyzoites of the RG strain of […] in M199-3% FCS for 1 h. After washing twice with HBSS, the infected monolayers received the test drugs (Compounds 1 to 10 of Table 1) at various concentrations in M199-10% FCS. The monolayers were then pulsed with […] of [3H]uracil (Amersham) during a period of 18 h. The acid-precipitable radioactivity on each well was counted by using a filtration procedure and the IC90 was calculated by probit analysis.
2×10^6 of the macrophage cells were seeded into each chamber of four-chamber glass slides (Lab-Tek). After removing nonadherent cells with HBSS, the monolayers were infected with 2×10^6 T. gondii for 1 h followed by addition of the drugs with the media over 18 h. Monolayers were fixed with 0.4% 9-aminoacridine (50% ethanol-water vol/vol), Giemsa-stained, and assessed by light microscopy. The results are shown in the following Table 6, including results of control compounds: […]

[6] = tested on: Onchocerca gutturosa; test: Activity against Onchocerca gutturosa, tetrazolium colorimetric test (parasites, medium and test drugs); type: cell-based; details: without cells
Experimental: as §2
Secondly, Compounds 2, 3, 4, 7, 8, 9, and 12, artemisinin and arteether were tested using parasites, medium and test drugs.

[7] = tested on: chloroquine-resistant strains of P. falciparum; details: in words; background, Science 228, 1049 (1985); cited from earlier work
[8] = tested on: in vitro mitogenic assay; mixed lymphocyte reaction; test: Immunomodulatory activity (in vitro mitogenic assay; mixed lymphocyte reaction); type: cell-based; details: in words
Experimental: Several of the compounds mentioned in Examples 1 to 17 were also tested for immunomodulatory activity (in vitro mitogenic assay; mixed lymphocyte reaction).

[9] = in words, 7 days, after an induction period
[10] = in words, two to three days exposure

O[C@@H]1C(c2ccccc2)=C[C@@]2(c3ccccc3)OOC3(CCOCC3)O[C@@H]12 (relative stereo) [Compound 7 (Table 4)]
reduction of motility ([1]; after 7 days): 100%
effect on worm motility [1, 9]: completely stopped morality
motility ([2]; after 2-3 days): less than 1

O[C@@H]1C(c2ccccc2)=C[C@@]2(c3ccccc3)OOC3(CCCC3)O[C@@H]12 (relative stereo) [Compound 8 (Table 4)]
reduction of motility ([1]; after 7 days): 100%
effect on worm motility [1, 10]: markedly inhibitory
effect on worm motility ([2]; after one day): immediate response

Cc1ccc(C2=C[C@@]3(c4ccc(C)cc4)OOC4(CCCCC4)O[C@H]3C2=O)cc1 (relative stereo) [Compound 11 (Table 4)]
reduction of motility ([1]; after 7 days): 100%
effect on worm motility ([1]; in words, one day exposure): significantly effective
inhibition at 50 µM [3]: > 90%

C1=C(c2ccccc2)C[C@@]2(c3ccccc3)OOC3(CCOCC3)O[C@@H]12 (relative stereo) [Compound 3 (Table 4)]
effectiveness in the motility test ([1]; in words, overall): not so effective
effect on worm motility ([2]; after 2-3 days): performed poorly

C1=C(c2ccccc2)C[C@@]2(c3ccccc3)OOC3(CCSCC3)O[C@@H]12 (relative stereo) [Compound 2 (Table 4)]
Mean T. gondii per infected vacuole ([4]; 5.3 mg ml^-1, 22 h): 1.3
% infected cells ([4]; 5.3 mg ml^-1, 22 h): 23%
T. gondii per 100 cells ([4]; 5.3 mg ml^-1, 22 h): 38
block of parasite growth [4]: able to block parasite growth
reduction of motility ([1]; after 7 days): 100%
effect on worm motility [1, 10]: markedly inhibitory
Mean T. gondii per infected vacuole ([5]; 5.3, 18 h): 1.2
% infected cells ([5]; 5.3, 18 h): 14%
T. gondii per 100 cells ([5]; 5.3, 18 h): 35
activity compared with pyrimethamine and pyrimethamine + sulfadiazine [5]: comparable to that of pyrimethamine, and pyrimethamine in combination with sulfadiazine
inhibition of the intracellular growth of toxoplasma [5]: confirmed the inhibition of the intracellular growth of toxoplasma
motility ([2]; after 2-3 days): less than 1

CCO[C@H]1O[C@@H]2O[C@@]3(C)CC[C@H]4[C@H](C)CC[C@@H]([C@H]1C)[C@@]24OO3 [arteether, reference compound]
reduction of motility ([1]; after a day, 1440 min): 30%
inhibition of formazan formation ([6]; in words): ineffective
inhibition of formazan formation [3]: about 40%
motility ([2]; after 4 days): 4
motility ([2]; after 7 days): 2

O[C@@H]1C(c2ccccc2)=C[C@@]2(c3ccccc3)OOC3(CCCCC3)O[C@@H]12 (relative stereo) [Compound 9 (Table 4)]
reduction of motility ([1]; after 7 days): 100%
effect on worm motility ([1]; in words, one day exposure): immediately immobilized worms in less than a day
effect on worm motility [1, 10]: markedly inhibitory
inhibition at 50 µM [3]: > 90%
effect on worm motility ([2]; after one day): immediate response

CC1(C)OO[C@]2(c3ccccc3)CC(c3ccccc3)=C[C@@H]2O1 (relative stereo) [Compound 5 (Table 4)]
reduction of motility ([1]; after 7 days): 100%
effect on worm motility ([1]; in words, one day exposure): significantly effective

C[C@@H]1CC[C@H]2[C@@H](C)C(=O)O[C@@H]3O[C@@]4(C)CC[C@@H]1[C@]32OO4 [artemisinin, reference compound]
activity of Qinghaosu against chloroquine-resistant strains [7]: remarkably active
effect on worm motility ([1]; in words, one day exposure): ineffective
inhibition of formazan formation [6]: about 25%
inhibition of formazan formation ([3]; in words): ineffective
reduction of motility ([2]; without cells ("under these conditions")): 30-40%

CC1(C)OO[C@@]2(c3ccc(Cl)cc3)CC(c3ccc(Cl)cc3)=C[C@H]2O1 (relative stereo) [Compound 6]
immunomodulatory activity [8]: most important activity

CCc1nc(N)nc(N)c1-c1ccc(Cl)cc1 [P, pyrimethamine, reference compound]
Mean T. gondii per infected vacuole ([5]; 1, 18 h): 1.2
% infected cells ([5]; 1, 18 h): 14%
T. gondii per 100 cells ([5]; 1, 18 h): 33

CC1(C)OO[C@]2(c3ccccc3)CCC(c3ccccc3)=C[C@@H]2O1 (relative stereo) [Compound 12 (Table 4)]
reduction of motility ([1]; after 7 days): 100%
effect on worm motility [1, 10]: markedly inhibitory
inhibition at 50 µM [3]: > 90%
motility ([2]; after 2-3 days): less than 1

O=C1C(c2ccccc2)=C[C@@]2(c3ccccc3)OOC3(CCCCC3)O[C@@H]12 (relative stereo) [Compound 6 (Table 4)]
Mean T. gondii per infected vacuole ([5]; 54, 18 h): 1.9
% infected cells ([5]; 54, 18 h): 20%
T. gondii per 100 cells ([5]; 54, 18 h): 43
activity compared with pyrimethamine and pyrimethamine + sulfadiazine [5]: comparable to that of pyrimethamine, and pyrimethamine in combination with sulfadiazine
inhibition of the intracellular growth of toxoplasma [5]: confirmed the inhibition of the intracellular growth of toxoplasma

C1=C(c2ccccc2)C[C@]2(c3ccccc3)OOC3(CCOCC3)O[C@H]12 (relative stereo) [Compound 12]
immunomodulatory activity [8]: most important activity

O=C1CCC2(CC1)OO[C@]1(c3ccccc3)CC(c3ccccc3)=C[C@@H]1O2 (relative stereo) [Compound 4 (Table 4)]
reduction of motility ([1]; after 7 days): 100%
effect on worm motility ([1]; in words, one day exposure): significantly effective
effect on worm motility ([2]; after one day): immediate response

C1=C(c2ccccc2)C[C@@]2(c3ccccc3)OOC3(CCCC3)O[C@@H]12 (relative stereo) [Compound 1 (Table 4)]
Mean T. gondii per infected vacuole ([4]; 6.8 mg ml^-1, 22 h): 1.8
% infected cells ([4]; 6.8 mg ml^-1, 22 h): 23%
T. gondii per 100 cells ([4]; 6.8 mg ml^-1, 22 h): 46
block of parasite growth [4]: able to block parasite growth
reduction of motility ([1]; after 7 days): 100%
effect on worm motility [1, 9]: completely stopped morality
Mean T. gondii per infected vacuole ([5]; 6.8, 18 h): 1.6
% infected cells ([5]; 6.8, 18 h): 19%
T. gondii per 100 cells ([5]; 6.8, 18 h): 38
activity compared with pyrimethamine and pyrimethamine + sulfadiazine [5]: comparable to that of pyrimethamine, and pyrimethamine in combination with sulfadiazine
inhibition of the intracellular growth of toxoplasma [5]: confirmed the inhibition of the intracellular growth of toxoplasma
